Assay results from PMC1513218 (BMC Pharmacology, 2006).
Structures can show the parent of a compound that is named as a salt.

Columns and labels:
[1] = biological target: T1, anthrax lethal factor (LF) protease (Bacillus anthracis, UniProt P15917); test: biochemical; type: biochemical
[2] = biological target: furin (Homo sapiens, UniProt P09958); test: Furin inhibition, fluorogenic substrate cleavage assay; type: biochemical
[3] = biological target: botulinum neurotoxin/A (BoNT/A) (Clostridium botulinum, UniProt P0DPI1); test: biochemical; type: biochemical
Sequence of botulinum neurotoxin/A (BoNT/A) (P0DPI1 whole entry, looked up): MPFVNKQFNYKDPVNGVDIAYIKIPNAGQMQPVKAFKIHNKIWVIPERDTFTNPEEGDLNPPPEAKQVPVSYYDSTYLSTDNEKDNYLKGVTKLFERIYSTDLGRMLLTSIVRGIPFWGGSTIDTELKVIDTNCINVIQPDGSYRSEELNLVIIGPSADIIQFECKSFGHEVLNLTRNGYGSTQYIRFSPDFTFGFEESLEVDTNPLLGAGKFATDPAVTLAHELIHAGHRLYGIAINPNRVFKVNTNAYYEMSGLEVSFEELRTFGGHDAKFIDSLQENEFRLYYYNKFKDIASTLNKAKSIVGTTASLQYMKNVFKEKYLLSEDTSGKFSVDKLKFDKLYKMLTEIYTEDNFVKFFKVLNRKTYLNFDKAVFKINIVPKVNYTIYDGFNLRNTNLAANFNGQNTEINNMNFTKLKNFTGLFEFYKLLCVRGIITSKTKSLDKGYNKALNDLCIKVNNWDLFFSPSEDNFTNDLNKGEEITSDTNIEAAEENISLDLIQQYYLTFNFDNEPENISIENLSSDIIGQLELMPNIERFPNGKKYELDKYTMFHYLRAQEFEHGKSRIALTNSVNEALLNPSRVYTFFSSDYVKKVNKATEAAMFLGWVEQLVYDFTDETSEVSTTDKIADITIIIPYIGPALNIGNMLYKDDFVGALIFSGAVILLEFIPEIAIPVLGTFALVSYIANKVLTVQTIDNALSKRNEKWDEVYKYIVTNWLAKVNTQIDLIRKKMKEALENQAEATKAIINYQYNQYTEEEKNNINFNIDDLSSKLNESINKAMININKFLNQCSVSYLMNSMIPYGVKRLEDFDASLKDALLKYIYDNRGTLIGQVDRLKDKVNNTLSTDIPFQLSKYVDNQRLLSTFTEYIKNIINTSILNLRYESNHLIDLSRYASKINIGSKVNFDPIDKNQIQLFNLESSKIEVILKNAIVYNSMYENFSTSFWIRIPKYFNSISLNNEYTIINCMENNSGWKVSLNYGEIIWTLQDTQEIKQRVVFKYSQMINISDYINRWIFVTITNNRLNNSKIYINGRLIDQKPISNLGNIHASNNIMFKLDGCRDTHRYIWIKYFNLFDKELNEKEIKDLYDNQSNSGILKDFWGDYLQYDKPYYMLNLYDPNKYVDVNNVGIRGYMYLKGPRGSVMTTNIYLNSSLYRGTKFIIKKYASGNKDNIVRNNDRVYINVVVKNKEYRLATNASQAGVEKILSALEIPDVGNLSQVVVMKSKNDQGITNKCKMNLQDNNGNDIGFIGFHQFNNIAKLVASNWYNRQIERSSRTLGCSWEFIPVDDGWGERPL

[4] = biological target: T1, anthrax lethal factor (LF) protease; type: biochemical
[5] = biological target: MMP-9 (Homo sapiens, UniProt P14780); test: biochemical
Sequence of MMP-9 (P14780 94-707, species assumed): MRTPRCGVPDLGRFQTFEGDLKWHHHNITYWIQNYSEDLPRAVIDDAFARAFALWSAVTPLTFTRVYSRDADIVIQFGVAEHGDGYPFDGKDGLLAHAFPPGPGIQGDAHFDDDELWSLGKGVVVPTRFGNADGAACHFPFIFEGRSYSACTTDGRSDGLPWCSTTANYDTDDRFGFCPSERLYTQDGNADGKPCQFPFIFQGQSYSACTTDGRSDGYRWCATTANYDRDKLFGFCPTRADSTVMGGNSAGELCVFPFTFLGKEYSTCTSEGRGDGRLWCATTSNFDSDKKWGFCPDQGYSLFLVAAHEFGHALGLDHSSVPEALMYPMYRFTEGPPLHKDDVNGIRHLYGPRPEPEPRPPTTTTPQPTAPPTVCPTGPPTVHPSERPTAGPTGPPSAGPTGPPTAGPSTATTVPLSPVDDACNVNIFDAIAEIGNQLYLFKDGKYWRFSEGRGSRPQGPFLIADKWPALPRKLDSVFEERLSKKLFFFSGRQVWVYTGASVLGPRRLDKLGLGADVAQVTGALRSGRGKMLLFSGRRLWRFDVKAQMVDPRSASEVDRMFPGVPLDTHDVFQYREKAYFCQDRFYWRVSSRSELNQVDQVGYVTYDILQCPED

[6] = biological target: cathepsin B (Homo sapiens, UniProt P07858); test: biochemical
[7] = biological target: cathepsin D (Homo sapiens, UniProt P07339); test: biochemical
Sequence of cathepsin D (P07339 65-412, species assumed): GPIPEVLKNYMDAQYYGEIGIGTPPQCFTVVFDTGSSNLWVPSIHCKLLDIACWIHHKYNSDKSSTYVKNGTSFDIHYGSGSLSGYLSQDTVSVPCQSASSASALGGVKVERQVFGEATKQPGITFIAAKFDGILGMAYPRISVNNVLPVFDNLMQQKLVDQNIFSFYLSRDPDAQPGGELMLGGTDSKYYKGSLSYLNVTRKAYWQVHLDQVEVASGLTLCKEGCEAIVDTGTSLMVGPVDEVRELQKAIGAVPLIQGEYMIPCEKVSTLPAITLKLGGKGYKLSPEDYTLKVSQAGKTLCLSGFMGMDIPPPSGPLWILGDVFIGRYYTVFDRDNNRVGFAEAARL

[8] = biological target: trypsin (Homo sapiens, UniProt P07477); test: biochemical

T1 sequence (P15917 34-809 limits assumed): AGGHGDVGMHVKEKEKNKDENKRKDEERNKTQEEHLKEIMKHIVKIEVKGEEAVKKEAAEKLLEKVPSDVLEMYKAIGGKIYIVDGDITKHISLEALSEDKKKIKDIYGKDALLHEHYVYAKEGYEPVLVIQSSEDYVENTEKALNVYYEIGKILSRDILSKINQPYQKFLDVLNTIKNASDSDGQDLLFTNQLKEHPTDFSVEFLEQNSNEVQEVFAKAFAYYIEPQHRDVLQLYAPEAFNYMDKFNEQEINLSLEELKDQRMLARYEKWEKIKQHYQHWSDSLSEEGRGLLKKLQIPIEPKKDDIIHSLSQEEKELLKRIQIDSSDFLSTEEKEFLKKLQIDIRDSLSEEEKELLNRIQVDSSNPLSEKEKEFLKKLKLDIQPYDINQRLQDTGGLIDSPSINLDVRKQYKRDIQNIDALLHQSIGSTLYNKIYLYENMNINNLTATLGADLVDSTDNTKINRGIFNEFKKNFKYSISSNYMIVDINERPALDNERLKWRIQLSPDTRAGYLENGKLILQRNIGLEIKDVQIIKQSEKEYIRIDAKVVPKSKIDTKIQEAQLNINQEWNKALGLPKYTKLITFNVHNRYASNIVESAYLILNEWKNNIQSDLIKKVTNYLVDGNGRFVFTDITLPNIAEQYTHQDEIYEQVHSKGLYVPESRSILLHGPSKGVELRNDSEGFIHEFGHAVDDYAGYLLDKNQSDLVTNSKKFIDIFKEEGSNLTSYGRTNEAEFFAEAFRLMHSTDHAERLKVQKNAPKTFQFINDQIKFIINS
Sequence of furin (P09958 108-794): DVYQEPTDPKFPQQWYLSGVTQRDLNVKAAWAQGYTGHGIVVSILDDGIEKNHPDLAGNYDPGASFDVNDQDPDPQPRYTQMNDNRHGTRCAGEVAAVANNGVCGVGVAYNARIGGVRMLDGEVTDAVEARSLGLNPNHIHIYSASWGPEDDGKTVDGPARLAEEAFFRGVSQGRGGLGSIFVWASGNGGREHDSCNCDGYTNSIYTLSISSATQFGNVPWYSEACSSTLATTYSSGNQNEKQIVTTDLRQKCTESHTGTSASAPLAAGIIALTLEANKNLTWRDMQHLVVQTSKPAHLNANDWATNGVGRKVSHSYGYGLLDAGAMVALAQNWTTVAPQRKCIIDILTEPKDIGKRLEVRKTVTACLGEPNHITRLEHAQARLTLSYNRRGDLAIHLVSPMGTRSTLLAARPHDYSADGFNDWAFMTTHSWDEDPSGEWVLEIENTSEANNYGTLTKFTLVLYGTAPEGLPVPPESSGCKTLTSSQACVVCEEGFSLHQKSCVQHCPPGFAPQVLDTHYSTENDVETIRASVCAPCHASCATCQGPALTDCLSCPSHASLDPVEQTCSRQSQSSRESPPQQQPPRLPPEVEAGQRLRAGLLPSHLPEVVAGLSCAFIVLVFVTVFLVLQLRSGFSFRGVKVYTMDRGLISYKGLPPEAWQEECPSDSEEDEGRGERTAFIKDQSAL

Row | SMILES | Ki [1] | IC50 [3] | Ki [5] | further results
1 | CNC(C)C1CCC(N)C(OC2C(N)CC(N)C(OC3OCC(C)(O)C(NC)C3O)C2O)O1 (stereo not drawn) [gentamicin] |  |  |  | LF inhibition (in words) [1]: inhibited LF enzyme activity
2 | N=C(N)NCCC[C@@H](N)C(=O)N[C@H](CCCNC(=N)N)C(=O)N[C@H](CCCNC(=N)N)C(=O)N[C@H](CCCNC(=N)N)C(=O)N[C@H](CCCNC(=N)N)C(=O)N[C@H](CCCNC(=N)N)C(N)=O [H-(D-Arg)-(D-Arg)-(D-Arg)-(D-Arg)-(D-Arg)-(D-Arg)-NH2] | 0.04 ± 0.02 µM |  |  | Ki [2]: 0.06 µM
3 | CNC(=O)[C@H](Cc1c[nH]c2ccccc12)NC(=O)[C@@H](CC(=O)NO)CC(C)C [GM 6001] | 7.2 ± 1.76 µM | > 300 µM |  | 
4 | NCCCCNCCCN [Spermidine] | > 100 µM | 76 µM |  | LF inhibition (in words) [1]: weaker than spermine but were still concentration-dependent inhibitors
5 | NC[C@@H]1O[C@H](O[C@H]2[C@@H](O)[C@H](O[C@@H]3[C@@H](O)[C@H](N)C[C@H](N)[C@H]3O[C@H]3O[C@H](CN)[C@@H](O)[C@H](O)[C@H]3N)O[C@@H]2CO)[C@H](N)[C@@H](O)[C@@H]1O [Neomycin B tris-sulfate] | 0.71 ± 0.04 µM | 92.5 µM | > 300 µM | right shift in potency as LF inhibitor caused by DNA [4]: ~ 10 fold
6 | CN[C@@H]1[C@@H](O[C@H]2O[C@H](CO)[C@@H](N)[C@H](O)[C@H]2O)OC2C[C@@H](N)[C@@H](O[C@H]3[C@H](O)[C@@H](O)[C@H](N)C[C@@H]3N)OC2[C@@H]1O (stereo partly drawn) [Apramycin] | 111 µM | > 300 µM | > 300 µM | 
7 | CC(=O)N[C@@H](CCCNC(=N)N)C(=O)N[C@@H](CCCNC(=N)N)C(=O)N[C@@H](CCCNC(=N)N)C(=O)N[C@@H](CCCNC(=N)N)C(=O)N[C@@H](CCCNC(=N)N)C(=O)N[C@@H](CCCNC(=N)N)C(N)=O [Ac-RRRRRR-NH2] | 0.12 µM |  |  | 
8 | CC(=O)N[C@@H](CCCNC(=N)N)C(=O)N[C@@H](CCCNC(=N)N)C(=O)N[C@@H](CCCNC(=N)N)C(=O)N[C@@H](CCCNC(=N)N)C(=O)N[C@@H](CCCNC(=N)N)C(=O)N[C@@H](CCCNC(=N)N)C(=O)O [Ac-RRRRRR-OH] | 0.29 ± 0.04 µM |  |  | Ki [2]: 0.05 µM
9 | CN[C@@H]1[C@@H](O)[C@@H](O[C@@H]2[C@@H](O)[C@H](O[C@H]3OC(CN)=CC[C@H]3N)[C@@H](N)C[C@H]2N)OC[C@]1(C)O [Sisomicin Sulfate] | 1.8 µM | > 300 µM | > 300 µM | 
10 | NC[C@H]1O[C@H](O[C@H]2[C@H](O)[C@@H](O)[C@H](N)C[C@@H]2N)[C@H](N)[C@@H](O)[C@@H]1O [Neamine (free base), Neamine] | 31.1 ± 5.6 µM | 175 µM | > 300 µM | effect of DNA or RNA on concentration-dependent LF inhibitory activity [4]: unaffected by DNA or RNA
11 | NCC[C@H](O)C(=O)N[C@@H]1C[C@H](N)[C@@H](O[C@H]2O[C@H](CN)[C@@H](O)[C@H](O)[C@H]2O)[C@H](O)[C@H]1O[C@H]1O[C@H](CO)[C@@H](O)[C@H](N)[C@H]1O [Amikacin] | 23.3 µM | > 300 µM | > 300 µM | 
12 | N=C(N)NC[C@H]1O[C@H](O[C@H]2[C@H](O)[C@@H](O)[C@H](NC(=N)N)C[C@@H]2NC(=N)N)[C@H](NC(=N)N)[C@@H](O)[C@@H]1O [Tetraguanyl neamine, free base, Tetraguanyl neamine] | 0.3 µM |  |  | 
13 | NCCCNCCCCNCCCN [Spermine, diphosphate salt] | 0.9 ± 0.09 µM | 57 µM | > 300 µM | effect of DNA or RNA on concentration-dependent LF inhibitory activity [4]: unaffected by DNA or RNA; Ki [3]: 46 ± 6 µM; fold weaker as botulinum protease inhibitor than as anthrax LF inhibitor [3]: > 40 fold; IC50 [6]: > 500 µM; IC50 [7]: > 500 µM; IC50 [8]: > 500 µM
14 | N=C(N)NC[C@@H]1O[C@H](O[C@H]2[C@@H](O)[C@H](O[C@@H]3[C@@H](O)[C@H](NC(=N)N)C[C@H](NC(=N)N)[C@H]3O[C@H]3O[C@H](CNC(=N)N)[C@@H](O)[C@H](O)[C@H]3NC(=N)N)O[C@@H]2CO)[C@H](NC(=N)N)[C@@H](O)[C@@H]1O [Neomycin B hexaguanyl hexatrifluoroacetate salt] | 0.03 µM | 14 µM | > 170 µM | Ki [2]: 1.5 µM
15 | NCCC[C@H](N)C(=O)O [ornithine] |  |  |  | LF inhibition (in words) [1]: weaker than spermine but were still concentration-dependent inhibitors
16 | NCCCCN [Putrescine (1,4-diaminobutane), 1,4-diaminobutane] | > 300 µM | > 300 µM | > 300 µM | 
17 | NC(N)=NCCC[C@H](NC(=O)[C@H](CCCN=C(N)N)NC(=O)[C@H](CCCN=C(N)N)NC(=O)[C@H](CCCN=C(N)N)NC(=O)[C@H](CCCN=C(N)N)NC(=O)[C@@H](N)CCCN=C(N)N)C(=O)O [H-RRRRRR-OH] | 0.24 µM |  |  | Ki [2]: 0.06 µM
